Assay results reported in US9650339B2, “Inhibitors of histone demethylases” (Gilead Sciences, Inc., priority 2013, dated 2017).

Assays:
[1] = target: T1, KDM4C (JMJD2C) (Homo sapiens, UniProt Q9H3R0); assay: Histone lysine demethylase AlphaLISA assay, KDM4C; type: biochemical; conditions: read-out: KDM4C HDME Inhibition IC50
T1 sequence (Q9H3R0 1-349): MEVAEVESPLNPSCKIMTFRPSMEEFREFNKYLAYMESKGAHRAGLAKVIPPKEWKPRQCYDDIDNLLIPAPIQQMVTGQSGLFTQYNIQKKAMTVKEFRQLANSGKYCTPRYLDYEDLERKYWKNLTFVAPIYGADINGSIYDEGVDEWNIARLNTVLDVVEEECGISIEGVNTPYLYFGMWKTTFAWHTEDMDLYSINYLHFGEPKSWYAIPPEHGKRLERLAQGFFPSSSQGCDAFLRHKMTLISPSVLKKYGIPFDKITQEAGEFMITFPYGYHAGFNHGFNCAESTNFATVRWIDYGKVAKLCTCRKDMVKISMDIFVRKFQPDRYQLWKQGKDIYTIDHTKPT
Experimental: (§1) Assays are performed analogously to the protocol described by PerkinElmer (Roy et al. PerkinElmer Technical Note: AlphaLISA #12, April 2011)
(§2) Enzymes are dissolved in enzyme buffer and incubated for 10 min before being added to 3% DMSO solutions of compounds in enzyme buffer. Incubated for another 10 minutes, before substrate solution is added and the reaction mixture is incubated at room temperature. 10 μL acceptor beads, suspended in Epigenetic Buffer (Perkin Elmer AL008) from stock, are added and the suspension is incubated in the dark at room temperature, before a suspension of streptavidin donor beads (Perkin Elmer 6760002) in Epigenetic Buffer is added. After incubation at room temperature in the dark the plates are read.
BK9M3: Biotin-ARTKQTAR(KMe3)STGGKAPRKQ-NH2 (Caslo, Denmark) […]
(§3) Substrate Solution: Substrate, 25 μM L-Asc, and 10 μM α-KG in Buffer A.

[2] = target: T2, KDM5B (PLU-1) (Homo sapiens, UniProt Q9UGL1); assay: Histone lysine demethylase AlphaLISA assay, KDM5B; type: biochemical; conditions: read-out: KDM5B HDME Inhibition IC50
T2 sequence (Q9UGL1 1-809): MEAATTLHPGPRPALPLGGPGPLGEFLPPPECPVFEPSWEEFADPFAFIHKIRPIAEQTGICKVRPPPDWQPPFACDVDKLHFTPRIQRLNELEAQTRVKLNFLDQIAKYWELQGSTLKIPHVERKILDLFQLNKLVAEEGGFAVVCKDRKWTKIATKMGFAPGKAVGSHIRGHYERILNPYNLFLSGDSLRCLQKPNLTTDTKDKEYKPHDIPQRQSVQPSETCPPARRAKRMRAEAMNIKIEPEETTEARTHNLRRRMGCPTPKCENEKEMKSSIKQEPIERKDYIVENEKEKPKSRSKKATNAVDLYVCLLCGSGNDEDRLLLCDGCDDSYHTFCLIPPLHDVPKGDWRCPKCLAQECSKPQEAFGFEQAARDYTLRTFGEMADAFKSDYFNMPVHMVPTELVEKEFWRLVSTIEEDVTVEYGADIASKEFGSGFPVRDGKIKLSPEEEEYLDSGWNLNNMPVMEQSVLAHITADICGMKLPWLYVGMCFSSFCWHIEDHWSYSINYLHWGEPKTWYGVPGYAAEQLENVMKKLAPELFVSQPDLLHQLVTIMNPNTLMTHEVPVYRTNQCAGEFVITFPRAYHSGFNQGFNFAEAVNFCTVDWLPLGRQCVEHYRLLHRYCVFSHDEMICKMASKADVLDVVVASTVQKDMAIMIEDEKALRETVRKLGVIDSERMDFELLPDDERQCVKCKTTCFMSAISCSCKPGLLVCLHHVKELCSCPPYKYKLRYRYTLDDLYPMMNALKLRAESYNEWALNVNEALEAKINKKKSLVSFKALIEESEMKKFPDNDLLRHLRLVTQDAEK
Experimental: as §1
as §2, with “read. […]” for “read.”
H3K4M3B: H-ART(Kme3)QTARKSTGGKAPRKQLA-NH-Biotin (Caslo, Denmark) […]
as §3

[3] = target: KDM6A (UTX) (Homo sapiens, UniProt O15550); assay: Histone lysine demethylase AlphaLISA assay, KDM6A; type: biochemical; conditions: read-out: KDM6A HDME Inhibition IC50
Experimental: as §1
as §2, with “read. […]” for “read.”
BK27M3: Biotin-ATKAAR(Kme3)SAPATGGVKKPHRY-NH2? (Caslo, Denmark) […]
as §3

[4] = test system: H3K4me3 mark; assay: Histone lysine demethylase immunofluorescence assay, non-transfected U2OS cells; type: cell-based; conditions: Homo sapiens, staining of the H3K4me3 mark, 20 hours incubation with compound
Experimental: U2OS cells were harvested and seeded into multi well plates into media containing compound. The media used was DMEM containing 5% FBS and pen/strep. 20 hours after incubation of cells with compounds, the cells were washed once in PBS, harvested by fixation with formaldehyde 4% aqueous solution, and washed in PBS. Subsequently, the cells were permeabilized in PBS with 0.2% Triton X-100. Blocking was performed in PBS with 0.2% Triton X-100 and 5% FBS. The cells were incubated with αH3K4me3 primary antibody (Cell Signaling, #9751S) in blocking solution over night at 4° C. After incubation with primary antibody, the cells were washed with PBS, incubated with secondary antibody (Alexa fluor 594 goat anti rabbit IgG, Invitrogen, A11012) and Hoechst, (Sigma, 33342) in blocking solution, and washed again with PBS. Finally, PBS was added and high throughput imaging and analysis were performed by an IN Cell Analyzer 1000 (GE Healthcare). The IC50 values were based on an average measure of the staining of the H3K4me3 mark in cells.

[5] = test system: MCF7 cells; assay: Cell proliferation assay MCF7; type: cell-based; conditions: MCF7 human breast cancer cells; 120 hours; ATPlite 1 Step
Experimental: MCF7 cells were seeded in multi well plates at a density optimized to give approximately 90% confluent cells at the time of harvest. Cells were incubated for 24 hours before addition of compound. Compounds were diluted in complete medium and added to the plates in duplicates. The final concentration of DMSO was maximum 0.5%. Complete medium used was DMEM with GlutaMAX containing 10% FBS and pen/strep.
120 hours after addition of compounds, the plates were harvested and analyzed by ATPlite 1 Step (Perkin Elmer, cat no 6016739) according to the manufactures recommendation.

[6] = target: T3, KDM2B (FBXL10) (Homo sapiens, UniProt Q8NHM5); assay: Histone lysine demethylase AlphaLISA assay, KDM2B; type: biochemical; conditions: read-out: KDM2B HDME Inhibition IC50
T3 sequence (Q8NHM5 1-650): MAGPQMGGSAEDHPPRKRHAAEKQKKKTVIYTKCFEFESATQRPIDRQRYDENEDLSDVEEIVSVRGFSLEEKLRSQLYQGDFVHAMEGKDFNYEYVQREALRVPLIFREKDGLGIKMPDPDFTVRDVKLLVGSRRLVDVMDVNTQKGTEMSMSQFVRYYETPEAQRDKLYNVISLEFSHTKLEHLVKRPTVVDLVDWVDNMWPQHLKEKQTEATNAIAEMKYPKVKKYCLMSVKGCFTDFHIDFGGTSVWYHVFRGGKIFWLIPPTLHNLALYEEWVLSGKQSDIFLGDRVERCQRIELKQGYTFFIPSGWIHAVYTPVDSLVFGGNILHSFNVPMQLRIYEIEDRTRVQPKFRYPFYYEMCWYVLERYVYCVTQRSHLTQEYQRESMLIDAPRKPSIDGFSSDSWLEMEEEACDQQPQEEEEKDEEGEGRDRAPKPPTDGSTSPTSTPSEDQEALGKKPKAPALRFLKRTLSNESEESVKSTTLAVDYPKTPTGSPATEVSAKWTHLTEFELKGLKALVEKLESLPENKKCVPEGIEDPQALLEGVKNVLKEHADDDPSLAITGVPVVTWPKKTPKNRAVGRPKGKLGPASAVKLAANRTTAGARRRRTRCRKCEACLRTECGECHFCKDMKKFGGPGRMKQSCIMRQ
Experimental: as §1
as §2, with “read. […]” for “read.”
BH3K36M2: RKAAPATGGVK(Me2)KPHRYRPGTVK-(BIOTIN)? (Anaspec)
as §3

Sequence of KDM6A (UTX) (O15550 919-1401): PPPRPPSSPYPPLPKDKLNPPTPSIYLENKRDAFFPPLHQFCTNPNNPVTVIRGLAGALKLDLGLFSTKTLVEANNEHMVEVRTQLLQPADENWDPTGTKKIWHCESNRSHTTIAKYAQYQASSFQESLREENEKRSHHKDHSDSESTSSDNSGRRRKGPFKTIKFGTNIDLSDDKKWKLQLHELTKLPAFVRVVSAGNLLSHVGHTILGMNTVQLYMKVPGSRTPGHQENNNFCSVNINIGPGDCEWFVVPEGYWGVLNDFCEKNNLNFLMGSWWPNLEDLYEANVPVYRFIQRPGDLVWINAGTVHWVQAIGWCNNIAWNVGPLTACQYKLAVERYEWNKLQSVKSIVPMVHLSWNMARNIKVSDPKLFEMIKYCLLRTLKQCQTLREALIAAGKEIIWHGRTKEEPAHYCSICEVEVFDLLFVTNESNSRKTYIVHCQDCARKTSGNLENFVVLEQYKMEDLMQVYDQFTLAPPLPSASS

| SMILES | IC50 [1] [nM] | IC50 [2] [nM] | IC50 [3] [nM] | IC50 [4] [nM] | EC50 [5] [nM] | IC50 [6] [nM] |
| --- | --- | --- | --- | --- | --- | --- |
| CCN(CC)CCCCNCc1cc(CNC(=O)C(=O)OC(C)(C)C)ccn1 [Compound 28, tert-butyl ({[2-({[4-(diethylamino)-butyl]amino}methyl)pyridin-4-yl]methyl}carbamoyl)-formate] | > 2500 | 250 to 2500 | > 2500 | 250 to 2500 | 250 to 2500 | – |
| CCN(CCN1CCC1)C(=O)CNCc1cc(CNC(=O)C(F)(F)F)ccn1 [Compound 30, N-[(2-{[({[2-(azetidin-1-yl)ethyl](ethyl)-carbamoyl}-methyl)amino]methyl}-pyridin-4-yl)methyl]-2,2,2-trifluoroacetamide] | > 2500 | 250 to 2500 | > 2500 | < 250 | < 250 | > 2500 |
| CCN(CCN(C)C)C(=O)CNCc1cc(CNC(=O)C(F)(F)CC)ccn1 [Compound 32, N-[(2-{[({[2-(dimethylamino)-ethyl](ethyl)-carbamoyl}methyl)-amino]methyl}pyridin-4-yl)methyl]-2,2-difluorobutanamide] | > 2500 | < 250 | > 2500 | > 2500 | > 2500 | > 2500 |
| CCN(CC)CCCCNCc1cc(C=NNc2ccc(C#N)cc2)ccn1 [Compound 70, 4-[2-{[2-({[4-(diethylamino)-butyl]amino}methyl)pyridin-4-yl]methylidene}-hydrazin-1-yl]benzonitrile] | > 2500 | 250 to 2500 | > 2500 | 250 to 2500 | 250 to 2500 | – |
| CCN(CC)CCCCNCc1cc(C=NCC(C)O)ccn1 (centres unmarked) [Compound 74, 1-[{[2-({[4-(diethylamino)-butyl]amino}-methyl)pyridin-4-yl]methylidene}-amino]propan-2-ol] | > 2500 | < 250 | – | < 250 | < 250 | – |
| CCN(CC)CCCCNCc1cc(/C=N/CC2(CO)CC2)ccn1 [Compound 77, (1-{[{[2-({[4-(diethylamino)-butyl]amino}-methyl)pyridin-4-yl]-methylidene}amino]-methyl}cyclopropyl)-methanol] | > 2500 | 250 to 2500 | – | < 250 | < 250 | > 2500 |
| CCN(CCCN(C)C)C(=O)CNCc1cc(/C=N/CCO)ccn1 [Compound 82, N-[3-(dimethylamino)propyl]-N-ethyl-2-[({4-[[(2-hydroxyethyl)imino]-methyl]pyridin-2-yl}methyl)amino]-acetamide] | > 2500 | > 2500 | > 2500 | < 250 | < 250 | > 2500 |
| CCN(CC)CCN(CC)C(=O)CNCc1cc(C=O)ccn1 [Compound 116, N-[2-(diethylamino)-ethyl]-N-ethyl-2-{[(4-formylpyridin-2-yl)methyl]amino}-acetamide] | < 250 | < 250 | > 2500 | < 250 | < 250 | – |

Continued, values first:

| IC50 [1] [nM] | IC50 [2] [nM] | IC50 [3] [nM] | IC50 [4] [nM] | EC50 [5] [nM] | IC50 [6] [nM] | SMILES |
| --- | --- | --- | --- | --- | --- | --- |
| 250 to 2500 | < 250 | – | < 250 | < 250 | > 2500 | CCN(CC1CCCN1C)C(=O)CNCc1cc(/C=N/CCO)ccn1 (centres unmarked) [Compound 79, N-ethyl-2-[({4-[[(2-hydroxyethyl)imino]-methyl]pyridin-2-yl}methyl)amino]-N-[(1-methylpyrrolidin-2-yl)-methyl]acetamide] |
| 250 to 2500 | < 250 | – | < 250 | < 250 | > 2500 | CCN(CC(C)N(C)C)C(=O)CNCc1cc(/C=N/CCO)ccn1 (centres unmarked) [Compound 83, N-[2-(dimethylamino)-propyl]-N-ethyl-2-[({4-[[(2-hydroxyethyl)imino]-methyl]pyridin-2-yl}methyl)amino]-acetamide] |
| < 250 | < 250 | > 2500 | < 250 | 250 to 2500 | > 2500 | CCN(C[C@@H]1CCC[C@@H]1N(C)C)C(=O)CNCc1cc(/C=N/CCO)ccn1 [Compound 85, N-{[(1S,2S)-2-(dimethylamino)-cyclopentyl]methyl}-N-ethyl-2-[({4-[[(2-hydroxyethyl)imino]-methyl]pyridin-2-yl}methyl)amino] acetamide-] |
| > 2500 | < 250 | – | < 250 | < 250 | – | CCN(CC1CCCN1C)C(=O)CNCc1cc(C=O)ccn1 (centres unmarked) [Compound 119, N-ethyl-2-{[(4-formylpyridin-2-yl)methyl]amino}-N-[(1-methylpyrrolidin-2-yl)methyl]acetamide] |
